Assay results published in patent US12187773B2, “Modified GIP peptide analogues” (Antag Therapeutics ApS, priority 2018, dated 2025).
Where a SMILES comes first, the peptide text is derived from it. Where no end group is shown, it is not given here. The star is where a group is joined. C16 diacid = O=C(O)CCCCCCCCCCCCCCC(=O)*

Columns and labels:
Type in all cases: cell-based
human GIP receptor [1] = molecular target: T1, human GIP receptor (Homo sapiens, UniProt P48546); test: cAMP agonism (CisBio cAMP Dynamic 2 HTRF assay); conditions: HEK293, read-out: cAMP agonism, % Efficacy, Table 1C, HEK-293 cells
T1 sequence (P48546 22-466): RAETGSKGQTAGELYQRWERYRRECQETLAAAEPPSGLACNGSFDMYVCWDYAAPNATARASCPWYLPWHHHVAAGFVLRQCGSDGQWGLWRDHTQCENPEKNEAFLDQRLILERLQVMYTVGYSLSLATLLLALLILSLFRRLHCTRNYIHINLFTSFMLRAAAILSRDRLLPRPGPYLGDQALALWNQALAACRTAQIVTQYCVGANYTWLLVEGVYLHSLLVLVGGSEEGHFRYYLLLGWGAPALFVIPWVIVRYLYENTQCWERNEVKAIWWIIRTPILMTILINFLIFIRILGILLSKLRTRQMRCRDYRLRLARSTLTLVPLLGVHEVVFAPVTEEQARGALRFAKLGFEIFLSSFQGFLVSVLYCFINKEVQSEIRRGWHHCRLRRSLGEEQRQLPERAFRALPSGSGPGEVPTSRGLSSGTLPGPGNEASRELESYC
Procedure: To test for agonistic properties at the GIP receptor, compounds were diluted and added to cells as described above and incubated for 30 min at 37° C. The resulting increase in intracellular cAMP was determined using the CisBio cAMP Dynamic 2 HTRF Assay Kit as described above.

human GIP receptor [2] = molecular target: T1, human GIP receptor; test: cAMP accumulation, agonism (DiscoveRx HitHunter cAMP XS assay); set-up: host or cells: COS-7 (transient, calcium phosphate; pCMV-Script vector); conditions: COS-7, read-out: cAMP agonism, Emax
Procedure: (§1) Transient transfected COS-7 cells expressing the human GIP receptor were seeded in white 96-well plates with a density of 3.5*10^4/well. The day after, the cells were washed twice with Hepes buffered saline (HBS) buffer and incubated with HBS and 1 mM 3-isobutyl-1-methylxanthine (IBMX) for 30 min at 37° C. To test for agonistic properties, ligands were added and incubated for 30 min at 37° C. In order to test for antagonistic properties, the cells were preincubated with the antagonists for 10 min prior to the addition of the agonist and subsequent incubated for 20 additional min. The HitHunter™ cAMP XS assay (DiscoveRx) was carried out according to the manufacturer's instructions.
(§2) In order to develop a GIP receptor antagonist with improved antagonistic properties, individual amino acid substitutions were conducted on GIP(3-30)NH2 and in particular at positions: 16, 18, 30 or 3, 16, 18, 30. The obtained peptides were lipidated at position 18 directly or via a linker. Both the agonistic and antagonistic profiles of the compounds were tested in cAMP accumulation experiments done in transiently transfected COS-7 cells expressing the human GIP receptor. To investigate if these mutated analogues still retained their antagonistic properties, their ability to inhibit a GIP-mediated cAMP response corresponding to 50-80% of maximum activation was examined.

human GIP receptor [3] = molecular target: T1, human GIP receptor; test: cAMP accumulation, antagonism (DiscoveRx HitHunter cAMP XS assay); set-up: host or cells: COS-7 (transient, calcium phosphate; pCMV-Script vector); conditions: Table 2, truncated GIP antagonists
Procedure: as §1, §2

human GIP receptor [4] = molecular target: T1, human GIP receptor; test: cAMP antagonism (CisBio cAMP Dynamic 2 HTRF assay); set-up: pCMV-Script vector; conditions: Table 1C; CisBio; HEK-293 cells
Procedure: The in vitro functional activity of compounds towards human GIP receptor can also be determined in HEK-293 cells transiently expressing the receptor. On the day of the assay, cells were resuspended in HBSS buffer (Gibco, 14025-50) supplemented with 20 mM HEPES (Gibco, 15630-106), 0,1% Pluronic F-68 (Gibco, 24040-032) and 0,1% casein (Sigma, C4765), and plated in 384-well plates at a density of 5000 cells/well. The GIP peptide analogues of the present disclosure were diluted in HBSS buffer supplemented with 20 mM HEPES, 0,1% pluronic, 0,1% casein and 500 uM IBMX. […] The resulting decrease in intracellular cAMP was quantitatively determined using the CisBio cAMP Dynamic 2 HTRF Assay Kit. The assay is based on a competition between native cAMP produced by cells and cAMP labeled with the dye d2 for binding to a cryptate labeled antibody. The specific signal (i.e. energy transfer signal) is inversely proportional to the concentration of cAMP in the sample.
The cAMP-d2 conjugate and the antibody anti-cAMP-Cryptate, both diluted in lysis buffer provided in the kit, were added to the cells according to the manufacturer's protocol. The resulting competitive assay was incubated for 60 minutes at room temperature, and the signal was detected by using a PerkinElmer Envision® instrument with excitation at 320 nm and emission at 665 nm and 620 nm. The HTRF ratio (emission at 665 nm/620 nm*10,000) is inversely proportional to the amount of cAMP present and is converted to nM cAMP per well using a cAMP standard curve. The dose-response curves were fitted using the non-linear regression analysis (four-logistic parameter equation) in GraphPad Prism, whereby pIC50 values were estimated.

Molecule	Emax (human GIP receptor [1]) [%]	Emax (human GIP receptor [2]) [%]	cAMP antagonism, % inhib (human GIP receptor [3]) [%]	IC50 (human GIP receptor [3]; cAMP antagonism, nM (IC50)) [nM]	cAMP antagonism, % inhib (human GIP receptor [4]) [%]	cAMP antagonism, nM (IC50) (human GIP receptor [3])
CC[C@H](C)[C@H](NC(=O)[C@H](CO)NC(=O)[C@H](Cc1ccc(O)cc1)NC(=O)[C@H](CC(=O)O)NC(=O)[C@H](CO)NC(=O)[C@@H](NC(=O)[C@H](Cc1ccccc1)NC(=O)[C@@H](N)[C@@H](C)O)[C@@H](C)CC)C(=O)N[C@@H](C)C(=O)N[C@@H](CC(C)C)C(=O)N[C@@H](CC(=O)O)C(=O)N[C@@H](CCCNC(=N)N)C(=O)N[C@H](C(=O)N[C@@H](CCCCNC(=O)CC[C@H](NC(=O)COCCOCCNC(=O)CCCCCCCCCCCCCCC(=O)O)C(=O)O)C(=O)N[C@@H](CCC(N)=O)C(=O)N[C@@H](CCC(N)=O)C(=O)N[C@@H](CC(=O)O)C(=O)N[C@@H](Cc1ccccc1)C(=O)N[C@H](C(=O)N[C@@H](CC(N)=O)C(=O)N[C@@H](Cc1c[nH]c2ccccc12)C(=O)N[C@@H](CC(C)C)C(=O)N[C@@H](CC(C)C)C(=O)N[C@@H](C)C(=O)N[C@@H](CCC(N)=O)C(=O)N[C@@H](CCCNC(=N)N)C(N)=O)C(C)C)[C@@H](C)CC [AT234] (HELM PEPTIDE1{T.F.I.S.D.Y.S.I.A.L.D.R.I.K.Q.Q.D.F.V.N.W.L.L.A.Q.R.[am]}|PEPTIDE2{[O=C(O)CCCCCCCCCCCCCCC(=O)[*:2]].[O=C(COCCOCCN[*:1])[*:2]].[gGlu]}$PEPTIDE1,PEPTIDE2,14:R3-3:R2$$$V2.0; N-terminus assumed)	0	26	–	–	–	–
CC[C@H](C)[C@H](NC(=O)[C@H](CO)NC(=O)[C@H](Cc1ccc(O)cc1)NC(=O)[C@H](CC(=O)O)NC(=O)[C@H](CO)NC(=O)[C@@H](NC(=O)[C@H](Cc1ccccc1)NC(=O)[C@@H](NC(=O)CNC(=O)CN)[C@@H](C)O)[C@@H](C)CC)C(=O)N[C@@H](C)C(=O)N[C@@H](CCSC)C(=O)N[C@@H](CC(=O)O)C(=O)N[C@@H](CCCNC(=N)N)C(=O)N[C@H](C(=O)N[C@@H](CCCCNC(=O)CCCCCCCCCCCCCCC(=O)O)C(=O)N[C@@H](CCC(N)=O)C(=O)N[C@@H](CCC(N)=O)C(=O)N[C@@H](CC(=O)O)C(=O)N[C@@H](Cc1ccccc1)C(=O)N[C@H](C(=O)N[C@@H](CC(N)=O)C(=O)N[C@@H](Cc1c[nH]c2ccccc12)C(=O)N[C@@H](CC(C)C)C(=O)N[C@@H](CC(C)C)C(=O)N[C@@H](C)C(=O)N[C@@H](CCC(N)=O)C(=O)N[C@@H](CCCNC(=N)N)C(=O)O)C(C)C)[C@@H](C)CC [AT257] (H-GGTFISDYSIAMDRIK(C16 diacid)QQDFVNWLLAQR-OH; N-terminus assumed)	5	4	–	–	–	–
CC[C@H](C)[C@H](N)C(=O)N[C@@H](CO)C(=O)N[C@@H](CC(=O)O)C(=O)N[C@@H](Cc1ccc(O)cc1)C(=O)N[C@@H](CO)C(=O)N[C@H](C(=O)N[C@@H](C)C(=O)N[C@@H](CCSC)C(=O)N[C@@H](CC(=O)O)C(=O)N[C@@H](CCCCN)C(=O)N[C@H](C(=O)N[C@@H](CCCCNC(=O)CCCCCCCCCCCCCCC(=O)O)C(=O)N[C@@H](CCC(N)=O)C(=O)N[C@@H](CCC(N)=O)C(=O)N[C@@H](CC(=O)O)C(=O)N[C@@H](Cc1ccccc1)C(=O)N[C@H](C(=O)N[C@@H](CC(N)=O)C(=O)N[C@@H](Cc1c[nH]c2ccccc12)C(=O)N[C@@H](CC(C)C)C(=O)N[C@@H](CC(C)C)C(=O)N[C@@H](C)C(=O)N[C@@H](CCC(N)=O)C(=O)N[C@@H](CCCCN)C(N)=O)C(C)C)[C@@H](C)CC)[C@@H](C)CC [AT354] (H-ISDYSIAMDKIK(C16 diacid)QQDFVNWLLAQK-NH2; N-terminus assumed)	0	–	100.0	10	91	–
CC[C@H](C)[C@H](NC(=O)[C@H](CO)NC(=O)[C@H](Cc1ccc(O)cc1)NC(=O)[C@H](CC(=O)O)NC(=O)[C@@H](N)CO)C(=O)N[C@@H](C)C(=O)N[C@@H](CCSC)C(=O)N[C@@H](CC(=O)O)C(=O)N[C@@H](CCCCN)C(=O)N[C@H](C(=O)N[C@@H](CCCCNC(=O)CCCCCCCCCCCCCCC(=O)O)C(=O)N[C@@H](CCC(N)=O)C(=O)N[C@@H](CCC(N)=O)C(=O)N[C@@H](CC(=O)O)C(=O)N[C@@H](Cc1ccccc1)C(=O)N[C@H](C(=O)N[C@@H](CC(N)=O)C(=O)N[C@@H](Cc1c[nH]c2ccccc12)C(=O)N[C@@H](CC(C)C)C(=O)N[C@@H](CC(C)C)C(=O)N[C@@H](C)C(=O)N[C@@H](CCC(N)=O)C(=O)N[C@@H](CCCCN)C(N)=O)C(C)C)[C@@H](C)CC [AT355] (H-SDYSIAMDKIK(C16 diacid)QQDFVNWLLAQK-NH2; N-terminus assumed)	0	–	100.0	–	65	–
CC[C@H](C)[C@H](NC(=O)[C@H](CO)NC(=O)[C@@H](N)Cc1ccc(O)cc1)C(=O)N[C@@H](C)C(=O)N[C@@H](CCSC)C(=O)N[C@@H](CC(=O)O)C(=O)N[C@@H](CCCCN)C(=O)N[C@H](C(=O)N[C@@H](CCCCNC(=O)CCCCCCCCCCCCCCC(=O)O)C(=O)N[C@@H](CCC(N)=O)C(=O)N[C@@H](CCC(N)=O)C(=O)N[C@@H](CC(=O)O)C(=O)N[C@@H](Cc1ccccc1)C(=O)N[C@H](C(=O)N[C@@H](CC(N)=O)C(=O)N[C@@H](Cc1c[nH]c2ccccc12)C(=O)N[C@@H](CC(C)C)C(=O)N[C@@H](CC(C)C)C(=O)N[C@@H](C)C(=O)N[C@@H](CCC(N)=O)C(=O)N[C@@H](CCCCN)C(N)=O)C(C)C)[C@@H](C)CC [AT357] (H-YSIAMDKIK(C16 diacid)QQDFVNWLLAQK-NH2; N-terminus assumed)	0	–	100.0	–	40	–
AT356: GIP 9-30, C-term NH2, C16-diacid at position 18, [H18K] (DYSIAMDKIK(C16 diacid)QQDFVNWLLAQK-NH2; N-terminus assumed; SMILES CC[C@H](C)[C@H](NC(=O)[C@H](CO)NC(=O)[C@H](Cc1ccc(O)cc1)NC(=O)[C@@H](N)CC(=O)O)C(=O)N[C@@H](C)C(=O)N[C@@H](CCSC)C(=O)N[C@@H](CC(=O)O)C(=O)N[C@@H](CCCCN)C(=O)N[C@H](C(=O)N[C@@H](CCCCNC(=O)CCCCCCCCCCCCCCC(=O)O)C(=O)N[C@@H](CCC(N)=O)C(=O)N[C@@H](CCC(N)=O)C(=O)N[C@@H](CC(=O)O)C(=O)N[C@@H](Cc1ccccc1)C(=O)N[C@H](C(=O)N[C@@H](CC(N)=O)C(=O)N[C@@H](Cc1c[nH]c2ccccc12)C(=O)N[C@@H](CC(C)C)C(=O)N[C@@H](CC(C)C)C(=O)N[C@@H](C)C(=O)N[C@@H](CCC(N)=O)C(=O)N[C@@H](CCCCN)C(N)=O)C(C)C)[C@@H](C)CC)	–	–	–	–	–	No antagonism
